Patent publication US8399416B2, “Method of using heparin binding motif for treating asthma” (National Tsing Hua University, priority 2008, dated 2013)
Residue numbers refer to the chain shown, from its start. No end group written: not given here.

Assays:
[1] = tested on: ECP binding to Beas-2B cells; test: Competitive inhibition of MBP-ECP binding to Beas-2B cells (cell ELISA); assay type: cell-based, human; details: Beas-2B cells preincubated with peptides 30 min at 4° C.
Experimental: FIG. 3. Heparin oligosaccharides inhibit ECP binding to cells. […] The amount of MBP-ECP bound to cells without GAG treatment was set to 100%. C, control (cells were incubated with MBP.) The data shown are the means of triplicate experiments.
FIG. 7. Synthetic peptides inhibit ECP binding to cells. […] The data shown are the means of triplicate experiments.
Beas-2B, a human bronchial epithelial cell line, was cultured in RPMI 1640 medium (Sigma-Aldrich) supplemented with heat-inactivated 10% fetal bovine serum (Gibco/Invitrogen, Carlsbad, Calif.).
The ability of MBP-ECP to bind cells in the presence of serial dilutions of oligosaccharides or peptides was determined as described (Fan, T. C., et al. (2007) Traffic 8, 1778-1795). At the present invention, synthetic heparins (dp3-9) were tested for their ability to interfere with ECP binding to Beas-2B cells. Briefly, confluent monolayers of Beas-2B cells in 96-well plates were pretreated with various concentrations of oligosaccharides or peptides in serum-free RPMI 1640 medium at 4° C. for 30 min before incubation with 5 μg/ml MBP-ECP at 4° C. for 1 h. The cells were then washed with ice-cold PBS and fixed with 2% PFA at room temperature for 15 min prior to blocking with 2% BSA/PBS at room temperature for 90 min. The level of bound MBP-ECP was quantified by ELISA analysis. MBP-ECP was detected using mouse monoclonal anti-MBP and goat anti-mouse horseradish peroxidase (HRP)-conjugated secondary antibody, followed by the enhanced chemiluminescence detection system. The amount of MBP-ECP bound to cells without oligosaccharide or peptide treatment was set to 100%.

[2] = tested on: Beas-2B cells; details: biotinylated peptides, 1 h at 4° C.
Experimental: FIG. 7. Synthetic peptides inhibit ECP binding to cells. A, Beas-2B cells were preincubated with peptides in RPMI 1640 medium for 30 min at 4° C. before incubation with MBP-ECP for an additional 1 h. After treatment, the cells were washed with PBS and fixed with PFA. The level of bound MBP-ECP was assessed by ELISA. The amount of MBP-ECP bound to cells without peptide treatment was set to 100%. The data shown are the means of triplicate experiments. B, Beas2-B cells were incubated with biotinylated peptides for 1 h at 4° C. The amount of peptides bound to cells was assessed as for FIG. 3.
To investigate whether the RWRCK (SEQ ID NO: 8) motif is directly responsible for heparin binding, cell ELISA was conducted using a synthetic peptide, C1 (SEQ ID NO: 3), along with a positive control peptide derived from HIV-TAT, TAT (SEQ ID NO: 6) (Vives, E., et al. (1997) The Journal of biological chemistry 272, 16010-16017; Ziegler, A. and Seelig, J. (2004) Biophysical journal 86, 254-263). […] Therefore, synthetic peptides with heparin binding activity may compete with ECP for cellular binding. Furthermore, the cell surface binding ability of peptides was tested using cell ELISA assay.

[3] = AMAC-labeled LMWH, increasing peptide concentrations, room temperature 15 min
Experimental: FIG. 9. FACE analysis of synthetic peptides. AMAC-labeled LMWH were incubated without or with increasing concentrations of C1, TAT, D1 and R1 peptides at room temperature for 15 min. Samples were loaded and separated by agarose gel electrophoresis as described for FIG. 2.
Synthetic heparin oligosaccharide (FIG. 1) (Lee, C. J., et al. (2004) J Am Chem Soc 126, 476-477), low molecular weight heparin (LMWH) and PI-88 (kindly provided by Progen Inc., Australia) were labeled with 2-aminoacridone (AMAC) as described (Calabro, A., et al. (2000) Glycobiology 10, 273-281). AMAC-oligosaccharide and proteins were incubated at room temperature for 15 min, loaded onto 1% gels and electrophoresed as described (Holmes, O., et al. (2007) J Mol Biol 367, 395-408).
In addition, because EDN contains a conventional heparin binding sequence, the corresponding peptide, D1 (SEQ ID NO: 4), was also synthesized and tested.

[4] = PBS buffer at 25° C.; HMWH 10-20 μM
Experimental: FIG. 11. Isothermal titration calorimetry of heparin-peptide interaction. The top panels show the differential power time course. Raw data for sequential 6-μl injections of each synthetic peptide in PBS buffer at 25° C. TAT (positive control), B, R1 (negative control), C, C1, and D, D1 into the sample cell containing 1.4 ml HMWH solution (10-20 μM). The total heat released in each injection is proportional to the area under the corresponding peak. […] The solid line represents a non-linear least squares of the reaction heat for the injection.

[5] = target: T1, ECP wt (Homo sapiens, UniProt P12724); test: Intrinsic tryptophan fluorescence titration of ECP wt with heparin oligosaccharides; assay type: binding; details: read-out: Kd, ECP wt, PBS at 25° C.
T1 construct: His6 (C); made in house; host or cells: E. coli BL21-CodonPlus (DE3)
T1 sequence (P12724 28-160): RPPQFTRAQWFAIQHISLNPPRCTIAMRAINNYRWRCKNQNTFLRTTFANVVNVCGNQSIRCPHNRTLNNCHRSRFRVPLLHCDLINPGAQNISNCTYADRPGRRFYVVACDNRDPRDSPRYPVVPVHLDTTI
Experimental: (§1) FIG. 5. ITFE profiles of ECP wt and mt1 with dp5. Tryptophan titration emission spectra of […] ECP wt or mt1 bound with dp5. The emission spectra at 340 nm were recorded. The resulting isotherms were fitted by nonlinear regression least-squares computer fit using the KaleidaGraph Synergy Software. ΔF, the relative fluorescence change, equals F0−Fobs, where F0 and Fobs represent the initial and observed fluorescence values, respectively.
(§2) The binding affinities of wild-type and mutant ECP for heparin oligosaccharides were subsequently monitored by intrinsic tryptophan fluorescence titration (Lau, E. K., et al. (2004) The Journal of biological chemistry 279, 22294-22305).
(§3) Binding of ECP to heparin was monitored by changes in intrinsic tryptophan fluorescence emission (IFTE). ECP (200 nM) in PBS at 25° C. was titrated with small aliquots of a high concentration of pentasaccharides with minimal dilution (<2%). Protein fluorescence measurements were recorded 2 min after each addition on a Hitachi 8000 spectrofluorimeter at emission wavelength of 340 nm using an excitation wavelength of 280 nm. ΔF, the relative fluorescence change, equals F0−Fobs, where F0 and Fobs represent the initial and observed fluorescence values, respectively. […]

[6] = target: T2, ECP mt1 (Homo sapiens, UniProt P12724, K65A/R61A/R63A/W62A); test: Intrinsic tryptophan fluorescence titration of ECP mt1 with heparin oligosaccharides; assay type: binding; details: read-out: Kd, ECP mt1, PBS at 25° C.
T2 construct: recombinant mature ECP was injected into the rat circulation; His6 (C); made in house; host or cells: E. coli BL21-CodonPlus(DE3)
T2 sequence (P12724 28-160 R61A/W62A/R63A/K65A): T1 sequence (P12724 28-160) with R34A, W35A, R36A, K38A
Experimental: as §1
Amino acid residues R34, W35, R36, and K38 of ECP were simultaneously substituted to alanine using QuickChange site-directed mutagenesis (Stratagene, La Jolla, Calif.) and the resultant mutant was named ECP mt1. […]
as §2
as §3, with “ECP (200 nM) in PBS at 25° C. was titrated with small aliquots of a high concentration of pentasaccharides with minimal dilution (<2%).” left out

[7] = target: C1 peptide (Homo sapiens, UniProt P12724); test: Tryptophan fluorescence titration of C1 peptide with heparin oligosaccharides; assay type: binding; details: read-out: Kd, C1 peptide; 1 μM peptide; tryptophan fluorescence at 340 nm
Experimental: FIG. 10. Titration profiles of synthetic peptides by synthetic heparin oligosaccharides. Titrations were carried out on 1 μM peptides in the presence of heparin oligosaccharides. The Kd of each peptide-oligosaccharide interaction was determined by measuring the fluorescence change of intrinsic tryptophan at 340 nm. Data were fitted to a single-binding-site curve using nonlinear least-squares analysis.
as §3

[8] = tested on: peri-bronchiolar and alveolar inflammation; parameters: species or system mice; details: mouse, in vivo
Description: FIG. 15. Tissue pathology staining in mice. 5-μm formalin-fixed lung sections were stained with H & E in (A) control (B) mIT, (C) eIN, (D) eIN+mIT, (E) mIT+eIN and (F) eIN+mIT+eIN mice. (G) Peribronchial and alveolar inflammation scores.
Animals Study protocol Female Balb/c mice 8 weeks of age were obtained from the National Laboratory Breeding Research Center in Taiwan and were raised in a specific pathogen-free environment. The mice were divided into six groups: (1) control, (2) mite intra-tracheal (mIT) alone, (3) ECP^32-41 (SEQ ID NO: 9) intranasal, (eIN) alone, (4) pre-treated group: eIN+mIT, (5) post-treated group: mIT+eIN and (6) pre+post-treated group eIN+mIT+eIN. Mite crude extract allergen (1.6 μg/μl) was prepared and well emulsified in complete Freund's adjuvant (CFA; Sigma, St Louis, Mo., USA) at a ratio of 1:1 at 4° C. The mIT, eIN and eIN+mIT groups were immunized subcutaneously with 50 μl emulsified mite protein on day 1 and day 8. […]
Histopathological analysis Lung sections stained with hematoxylin and eosin (H&E) were assigned a unit value for alveolar, peri-bronchiolar and total inflammation by computing the means of three independent scores for three randomly selected view-fields. […] Total inflammatory scores were determined as the sum of the peri-bronchiolar and alveolar inflammatory scores. […]

| Molecule | binding of MBP-ECP to cell-surface HS in the presence of peptide [1] | cell surface binding ability of peptides [2] | interaction with LMWH (FACE) [3] | heat release on binding to HMWH (ITC) [4] | Kd [5] | Kd [6] | Kd [7] | allergic airway inflammatory pathologies (H&E) [8] |
| --- | --- | --- | --- | --- | --- | --- | --- | --- |
| NYRWRCKNQNK-biotin [C1] | significantly reduced | bound to the cell surface | decreased amount of free AMAC-LMWH signal | exothermal reaction modes were clearly observed |  |  |  |  |
| YGRKKRRQRRRK-biotin [TAT] | significantly reduced | bound to the cell surface | decreased amount of free AMAC-LMWH signal | significant exothermal reaction mode |  |  |  |  |
| CO[C@H]1O[C@H](COS(=O)(=O)O)[C@@H](O[C@@H]2O[C@@H](C(=O)O)[C@@H](O[C@H]3O[C@H](COS(=O)(=O)O)[C@@H](O[C@@H]4O[C@@H](C(=O)O)[C@@H](O[C@H]5O[C@H](COS(=O)(=O)O)[C@@H](O[C@@H]6O[C@@H](C(=O)O)[C@@H](O[C@H]7O[C@H](COS(=O)(=O)O)[C@@H](O[C@@H]8O[C@@H](C(=O)O)[C@@H](O[C@H]9O[C@H](COS(=O)(=O)O)[C@@H](O)[C@H](O)[C@H]9NS(=O)(=O)O)[C@H](O)[C@H]8OS(=O)(=O)O)[C@H](O)[C@H]7NS(=O)(=O)O)[C@H](O)[C@H]6OS(=O)(=O)O)[C@H](O)[C@H]5NS(=O)(=O)O)[C@H](O)[C@H]4OS(=O)(=O)O)[C@H](O)[C@H]3NS(=O)(=O)O)[C@H](O)[C@H]2OS(=O)(=O)O)[C@H](O)[C@H]1NS(=O)(=O)O [dp9] |  |  |  |  | 62.6 nM | 400 nM | 229 nM |  |
| MTQGRCKPVNK-biotin [R1] |  | devoid of such function | did not bind heparin | no heat release |  |  |  |  |
| NYRWRCKNQN [ECP^32-41] |  |  |  |  |  |  |  | did not demonstrate allergic airway inflammatory pathologies |
